Results as given in paper PMC6911004, “Fragment-based screening identifies molecules targeting the substrate-binding ankyrin repeat domains of tankyrase” (Scientific Reports, 2019).

Key:
TNKS2 ARC5 = target: T1, TNKS2 ARC5 (Homo sapiens, UniProt Q9H2K2); assay: Differential scanning fluorimetry (DSF, thermal shift); assay type: binding; conditions: fragment 500 μM
T1 construct: followed by TNKS2 ARC5 (1 μL, 100 μM stock); His6-GST; made in house; host or cells: E. coli
Description: Therefore, we chose TNKS2 ARC5 for screening by DSF, anticipating the largest signal window for measuring changes in Tm upon fragment binding.
We screened 1869 compounds in duplicate at a concentration of 500 μM, which we considered a reasonable compromise between having a sufficiently high concentration to identify weak binders while minimising the likelihood of false positives through fragment precipitation/aggregation and non-specific binding. The final DMSO concentration was 5%. We calculated melting temperatures using both the inflection point and the maximum peak of first derivative data methods. Both methods generally agreed, unless the melt curve was biphasic or misshapen, with slightly lower variability for the […] Tm determination method (see Materials and Methods for experimental and analysis details).
We determined the melting temperature for the unbound ARC (Tm, 0) from the mean of 12 reference melting curves per plate, with 5% DMSO only. We calculated the change in melting temperature (ΔTm) by subtracting the mean Tm, 0 from Tm, compound. We tested compounds in duplicate, defining fragments as hits if they conferred a ΔTm outside two standard deviations (2σ) from the mean, in one or both replicates. To check for consistency between plates, we ran triplicate peptide controls; however, we excluded peptide ΔTm values from the calculation of the mean ΔTm to avoid skewing the results. We observed mean ΔTm values (IP/1st derivative methods) of −0.127/−0.331 °C and σ as 0.997/1.19 °C. A hit cut-off of 2σ gave absolute shifts of +1.87/+2.05 °C for compounds that stabilised and −2.13/−2.71 °C for compounds that destabilised the ARC (Fig. 2B).
For the screen, a C1000 thermal cycler (Bio-Rad) was used to record melt curves. SYPRO Orange was purchased as a 5000 × stock in DMSO from Sigma Aldrich. The ICR fragment library was available as 100 mM stocks in DMSO, and dispensed (25 nL) using an ECHO acoustic liquid handling system into white 384-well PCR plates (Framestar, 4titude). Wells were backfilled with DMSO (225 nL). Buffer (2.75 μL, 25 mM HEPES-NaOH pH 7.5, 100 mM NaCl, 2 mM TCEP) was added, followed by TNKS2 ARC5 (1 μL, 100 μM stock) and then SYPRO orange dye (1 μL, 25×). The plate was centrifuged after the addition of each reagent (1 min, 1000 × g). Final assay concentrations were as follows: TNKS2 ARC5 (20 μM); fragment (500 μM); SYPRO Orange dye (5×); DMSO (5% v/v) in a total volume of 5 μL. Peptide control wells (3BP2 TBM 16-mer, 200 μM, sequence LPHLQRSPPDGQSFRSW with C-terminal tryptophan added for photometric concentration measurements, the N-terminus acetylated and the C-terminus amide-capped) were plated in triplicate, and there were 12 blank wells per plate, with DMSO only (250 nL, 5% v/v). Melt curves were recorded from 20–95 °C, with the temperature ramped by 0.5 °C every 15 s. Data were analysed using Vortex (Dotmatics) software and melting temperatures calculated from both the inflection point and the maximum peak of 1st-derivative data. Data points were excluded if the melt curve was poor, i.e., if there was no fluorescence signal above baseline, high fluorescence intensity throughout, or if the melt curve was shallow (<1000 rfu difference between baseline and peak maximum). The unbound melting temperature was determined from the mean of 12 reference melting curves, with 5% DMSO only. The change in melting temperature (ΔTm) was calculated by subtracting the mean Tm, 0 from Tm, compound. Compounds were tested in duplicate, and fragments were defined as hits if they gave a ΔTm outwith 2 σ from the mean in one or both replicates.
For the experiment shown in Fig. 2A, ARC and 3BP2 TBM peptide concentrations were 20 and 200 μM, respectively, in 50 mM HEPES-NaOH pH 7.5, 100 mM NaCl, 2 mM TCEP and a total volume of 25 μL. SYPRO Orange was added at 5×. Data were recorded from 4–95 °C, with the temperature ramped by 0.5 °C every 15 s, using a CFX384 thermal cycler (Bio-Rad). […]

TNKS2 ARC4 = target: T2, TNKS2 ARC4 (Homo sapiens, UniProt Q9H2K2); assay: Primary fragment screen by T2 relaxation-edited ligand-observed NMR (cocktails of four); assay type: binding; conditions: fragments 1 mM each, 35 μM protein
T2 construct: The cell was filled with TNKS2 ARC4 (488–649); His6-GST; made in house; host or cells: E. coli
T2 sequence (Q9H2K2 488-649): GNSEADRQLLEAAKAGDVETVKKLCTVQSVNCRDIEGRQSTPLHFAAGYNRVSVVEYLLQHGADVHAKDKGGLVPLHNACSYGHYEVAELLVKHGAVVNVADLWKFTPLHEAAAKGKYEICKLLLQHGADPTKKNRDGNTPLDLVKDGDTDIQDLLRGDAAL
Excerpt: The hit rate for compounds confirmed to bind TNKS2 ARC5 as evaluated by NMR was relatively low, at 0.78%, and only 0.16% for fragments binding TNKS2 ARC4 and 5 competitively with a TBM peptide. Different screening assays often identify distinct hit fragments. There is no consensus on the most appropriate assays to use for fragment screening, especially against challenging targets such as protein-protein interactions. Often several orthogonal methods are used in series to narrow down fragment hits, or a combination of biophysical and biochemical assays to exclude false positives and identify binders that modulate protein activity. We therefore carried out an additional primary screen using T2 relaxation-edited ligand-observed NMR on TNKS2 ARC4, probing a subset of molecules from the ICR fragment library that was compatible with NMR. […]
Data were processed using Bruker Topsin 3.14, then analysed using the MNova Screen software. […] The relative peak intensity change (I) was calculated by Eq. 1 for all peaks in the 5.5–9.5 ppm region, for each compound.1 I=(Iblank−Iprotein)/Iblank
The average percentage change was then calculated, and compounds designated a hit if the signal was reduced by ≥26% (2 σ). […] Protein ^1H spectra of TNKS2 ARC4 (200 μM) were measured at 24 h intervals to ensure protein stability and folding for the duration of the screening experiments.

T1 sequence (Q9H2K2 641-800): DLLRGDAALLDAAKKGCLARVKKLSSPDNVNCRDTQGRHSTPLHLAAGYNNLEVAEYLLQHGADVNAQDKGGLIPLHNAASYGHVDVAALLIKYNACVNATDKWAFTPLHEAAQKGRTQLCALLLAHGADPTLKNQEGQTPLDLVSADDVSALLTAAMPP

Row | SMILES | hit in DSF primary screen (TNKS2 ARC5) | hit in NMR primary screen (TNKS2 ARC4)
1 | CCOc1cccc(-c2cc(N)[nH]n2)c1 [compound 6] | hits | hits
2 | Nc1nc(Nc2ccccc2)nc2ccccc12 [compound 7] | hits | hits
